Results: patent publication US11135214B2, “Methods for enhancing the bio availability and exposure of a voltage-gated potassium channel opener” (priority 2018, dated 2021)
Several values for one entry are separate records, joined by “and”; a condition that tells them apart may be missing. Identical values can stand only once. Like-named read-outs stand apart in the source and are kept apart here.

Experiment: Food effect study, oral capsule, plasma PK in non-human primate
Assay type: in vivo, Cynomolgus monkeys
Conditions: for AUC(0-inf): read-out: AUCinfobs
Procedure: The following study was conducted to determine the effect of food when Compound A is orally administered to a non-human primate.
Three (n=3) Cynomolgus monkeys of Vietnamese origin were used in this study. At the time of initial dose administration, the monkeys weighed 4.7 to 5.1 kg and were about 4.5 years of age.
A certified primate diet (Teklad® Certified Diet 2050C) was fed during the study. For Group 1, the three monkeys were fasted overnight with food returned 4 hours post-dose. For Group 2, the same three monkeys were fasted overnight and offered food about 1 hour prior to dosing and food was returned at 4 hours post-dose. The following Table 1 gives the food consumption for Group 2:
The oral dosage units consisted of about 3 mg/kg of Compound A in a capsule. The capsules were filled the morning of the dose administration and kept at room temperature until dosing. The remaining capsules were placed into the −20° C. storage.
The capsules were placed as far back in the animal's mouth as possible using a pill gun or a modified gavage tube. Approximately 10 mL of water was administered via syringe to ensure complete delivery of the intended dose. Each animal received 1 capsule per dose. The same animals were dosed twice with a 96 hour washout period between doses.
Group 1: All animals were weighed the afternoon prior to dose administration. Animal #2 struggled with dosing. After several attempts, the animal was given a short break and finally dosed successfully.
Group 2: All animals were weighed the morning of dose administration. All animals were dosed without incident.
Whole blood (˜2.0 mL) was collected using syringe and needle from cephalic or saphenous veins and transferred into vacutainer tubes containing K2EDTA and kept on wet ice until processed for plasma. Blood samples were collected at time of dosing (0.0 hours, time zero) and at 0.5, 1, 2, 4, 8, 12, 24 and 48 hours post-dose.
The whole blood samples were placed in a K2EDTA tube and centrifuged at 3200 RPM for 10 minutes at approximately 5° C. Plasma samples were divided into 2 aliquots and each aliquot directly transferred to appropriately labeled, individual tubes containing study number, collection time point, animal ID number, and sample description. One aliquot was placed into storage at −20±5° C. until shipment for analysis. The other aliquot was retained at −20±5° C. Red blood cells were disposed.
All samples were processed per standard protocol for bioanalytical analysis.

[1] = Cynomolgus (Vietnamese origin), cynomolgus monkey, plasma, po, 3 mg/kg, Group 2 (fed), 3 mg/kg capsule, individual subjects
[2] = Cynomolgus, Vietnamese origin, cynomolgus monkey, plasma, po, 3 mg/kg, Group 1 (fasted), 3 mg/kg capsule, Mean
[3] = Group 1 (fasted), 3 mg/kg capsule, individual subjects, 3 mg/kg
[4] = Group 2 (fed), 3 mg/kg capsule, individual subjects, 3 mg/kg
[5] = cynomolgus monkey, plasma, po, 3 mg/kg, Group 2 (fed), 3 mg/kg capsule, Mean

SMILES: Cc1cc(N2CCc3cc(F)ccc3C2)cc(C)c1NC(=O)CC(C)(C)C [Compound A, N-[4-(6-fluoro-3,4-dihydro-1H-isoquinolin-2-yl)-2,6-dimethylphenyl]-3,3-dimethylbutanamide]
- Cmax (Cynomolgus (Vietnamese origin), cynomolgus monkey, plasma, po, 3 mg/kg, Group 2 (fed), 3 mg/kg capsule, Mean, read-out: Cmax): 65.4 ng/mL
- Tmax (Cynomolgus (Vietnamese origin), cynomolgus monkey, plasma, po, 3 mg/kg, Group 2 (fed), 3 mg/kg capsule, Mean, read-out: Tmax): 8 h
- AUC(0-t) [1]: 1120 ng·h/mL
- AUC(0-inf) [1]: 1180 ng·h/mL
- Cmax (Cynomolgus (Vietnamese origin), cynomolgus monkey, plasma, po, 3 mg/kg, Group 2 (fed), 3 mg/kg capsule, individual subjects, read-out: Cmax): 50.4 ng/mL
- AUC(0-t) [2]: 1490 ng·h/mL
- AUC(0-inf) [2]: 913 ng·h/mL
- Cmax (Cynomolgus, Vietnamese origin, cynomolgus monkey, plasma, po, 3 mg/kg, Group 1 (fasted), 3 mg/kg capsule, Mean, read-out: Cmax): 55.7 ng/mL
- Tmax (Cynomolgus, Vietnamese origin, cynomolgus monkey, plasma, po, 3 mg/kg, Group 1 (fasted), 3 mg/kg capsule, Mean, read-out: Tmax): 10.7 h
- Cmax (Cynomolgus, Vietnamese origin, cynomolgus monkey, plasma, po, 3 mg/kg, Group 1 (fasted), 3 mg/kg capsule, individual subjects, read-out: Cmax): 75.1 ng/mL
- Tmax (Cynomolgus, Vietnamese origin, cynomolgus monkey, plasma, po, 3 mg/kg, Group 1 (fasted), 3 mg/kg capsule, individual subjects, read-out: Tmax): 12 h
- t½λz (Group 1 (fasted), 3 mg/kg capsule, Mean): 9.7 h
- t½λz (Group 1 (fasted), 3 mg/kg capsule, individual subjects): 9.7 h
- AUClast [3]: 1940 ng·h/mL and 1650 ng·h/mL and 869 ng·h/mL
- Cmax [3]: 53.7 ng/mL and 38.4 ng/mL
- t½λz (Group 2 (fed), 3 mg/kg capsule, Mean): 10.1 h
- t½λz (Group 2 (fed), 3 mg/kg capsule, individual subjects): 10.1 h
- AUClast [4]: 2010 ng·h/mL and 1790 ng·h/mL
- Cmax [4]: 67.5 ng/mL and 78.2 ng/mL
- Tmax [4]: 4 h
- concentration at 0 h (cynomolgus monkey, plasma, oral, 3 mg/kg, Group 1 (fasted), 3 mg/kg, 0 h, N=3, read-out: Mean plasma concentration): 0 ng/mL
- concentration at 0.5 h (cynomolgus monkey, plasma, oral, 3 mg/kg, Group 1 (fasted), 3 mg/kg, 0.5 h, N=3, read-out: Mean plasma concentration): 0 ng/mL
- concentration at 1 h (cynomolgus monkey, plasma, oral, 3 mg/kg, Group 1 (fasted), 3 mg/kg, 1 h, N=3, read-out: Mean plasma concentration): 6.89 ng/mL
- concentration at 2 h (cynomolgus monkey, plasma, oral, 3 mg/kg, Group 1 (fasted), 3 mg/kg, 2 h, N=3): 15.3 ng/mL
- concentration at 4 h (cynomolgus monkey, plasma, oral, 3 mg/kg, Group 1 (fasted), 3 mg/kg, 4 h, N=3, read-out: Mean plasma concentration): 16.6 ng/mL
- concentration at 8 h (cynomolgus monkey, plasma, oral, 3 mg/kg, Group 1 (fasted), 3 mg/kg, 8 h, N=3, read-out: Mean plasma concentration): 49.9 ng/mL
- concentration at 12 h (cynomolgus monkey, plasma, oral, 3 mg/kg, Group 1 (fasted), 3 mg/kg, 12 h, N=3, read-out: Mean plasma concentration): 55.7 ng/mL
- concentration at 24 h (cynomolgus monkey, plasma, oral, 3 mg/kg, Group 1 (fasted), 3 mg/kg, 24 h, N=3): 42.5 ng/mL
- concentration at 48 h (cynomolgus monkey, plasma, oral, 3 mg/kg, Group 1 (fasted), 3 mg/kg, 48 h, N=3): 8.94 ng/mL
- concentration at 0 h (cynomolgus monkey, plasma, oral, 3 mg/kg, Group 2 (fed), 3 mg/kg, 0 h, N=3, read-out: Mean plasma concentration): 0 ng/mL
- concentration at 0.5 h (cynomolgus monkey, plasma, oral, 3 mg/kg, Group 2 (fed), 3 mg/kg, 0.5 h, N=3, read-out: Mean plasma concentration): 0.35 ng/mL
- concentration at 1 h (cynomolgus monkey, plasma, oral, 3 mg/kg, Group 2 (fed), 3 mg/kg, 1 h, N=3, read-out: Mean plasma concentration): 1.25 ng/mL
- concentration at 2 h (cynomolgus monkey, plasma, oral, 3 mg/kg, Group 2 (fed), 3 mg/kg, 2 h, N=3): 7.73 ng/mL
- concentration at 4 h (cynomolgus monkey, plasma, oral, 3 mg/kg, Group 2 (fed), 3 mg/kg, 4 h, N=3, read-out: Mean plasma concentration): 44.3 ng/mL
- concentration at 8 h (cynomolgus monkey, plasma, oral, 3 mg/kg, Group 2 (fed), 3 mg/kg, 8 h, N=3, read-out: Mean plasma concentration): 55.4 ng/mL
- concentration at 12 h (cynomolgus monkey, plasma, oral, 3 mg/kg, Group 2 (fed), 3 mg/kg, 12 h, N=3, read-out: Mean plasma concentration): 52.8 ng/mL
- concentration at 24 h (cynomolgus monkey, plasma, oral, 3 mg/kg, Group 2 (fed), 3 mg/kg, 24 h, N=3): 45 ng/mL
- concentration at 48 h (cynomolgus monkey, plasma, oral, 3 mg/kg, Group 2 (fed), 3 mg/kg, 48 h, N=3): 11.6 ng/mL
- concentration at 0 h (cynomolgus monkey, plasma, oral, 3 mg/kg, fed, 3 mg/kg capsule, plasma, 0 h, individual animals, read-out: Concentration): 0 ng/mL
- concentration at 1 h (cynomolgus monkey, plasma, oral, 3 mg/kg, fed, 3 mg/kg capsule, plasma, 1 h, individual animals, read-out: Concentration): 1.05 ng/mL
- concentration at 8 h (cynomolgus monkey, plasma, oral, 3 mg/kg, fed, 3 mg/kg capsule, plasma, 8 h, individual animals, read-out: Concentration): 50.4 ng/mL
- concentration at 12 h (cynomolgus monkey, plasma, oral, 3 mg/kg, fed, 3 mg/kg capsule, plasma, 12 h, individual animals, read-out: Concentration): 48.8 ng/mL
- AUC(0-inf) (cynomolgus monkey, plasma, po, 3 mg/kg, Group 1 (fasted), 3 mg/kg capsule, individual subjects): 913 ng·h/mL
- AUC(0-t) [5]: 1640 ng·h/mL
- AUC(0-inf) [5]: 1180 ng·h/mL
- concentration at 0 h (cynomolgus monkey, plasma, po, 3 mg/kg, fasted, 3 mg/kg oral, plasma, 0 h, individual animals, read-out: Concentration): 0 ng/mL
- concentration at 0.5 h (cynomolgus monkey, plasma, po, 3 mg/kg, fasted, 3 mg/kg oral, plasma, 0.5 h, individual animals, read-out: Concentration): 0 ng/mL
- concentration at 4 h (cynomolgus monkey, plasma, po, 3 mg/kg, fasted, 3 mg/kg oral, plasma, 4 h, individual animals, read-out: Concentration): 12.6 ng/mL
- concentration at 8 h (cynomolgus monkey, plasma, po, 3 mg/kg, fasted, 3 mg/kg oral, plasma, 8 h, individual animals, read-out: Concentration): 38.4 ng/mL
- concentration at 12 h (cynomolgus monkey, plasma, po, 3 mg/kg, fasted, 3 mg/kg oral, plasma, 12 h, individual animals, read-out: Concentration): 38.3 ng/mL
- Concentration (fasted, 3 mg/kg oral, plasma, 0 h, individual animals): 0 ng/mL
- Concentration (fasted, 3 mg/kg oral, plasma, 0.5 h, individual animals): 0 ng/mL
- Concentration (fasted, 3 mg/kg oral, plasma, 1 h, individual animals, 3 mg/kg): 15.6 ng/mL and 5.07 ng/mL and 0 ng/mL
- Concentration (fasted, 3 mg/kg oral, plasma, 2 h, individual animals, 3 mg/kg): 6.00 ng/mL and 23.5 ng/mL and 16.4 ng/mL
- Concentration (fasted, 3 mg/kg oral, plasma, 4 h, individual animals, 3 mg/kg): 19.2 ng/mL and 18.1 ng/mL
- Concentration (fasted, 3 mg/kg oral, plasma, 8 h, individual animals, 3 mg/kg): 63.1 ng/mL and 48.1 ng/mL
- Concentration (fasted, 3 mg/kg oral, plasma, 12 h, individual animals, 3 mg/kg): 75.1 ng/mL and 53.7 ng/mL
- Concentration (fasted, 3 mg/kg oral, plasma, 24 h, individual animals, 3 mg/kg): 22.5 ng/mL and 53.2 ng/mL and 51.8 ng/mL
- Concentration (fasted, 3 mg/kg oral, plasma, 48 h, individual animals, 3 mg/kg): 3.13 ng/mL and 12.5 ng/mL and 11.2 ng/mL
- Concentration (fed, 3 mg/kg capsule, plasma, 0 h, individual animals): 0 ng/mL
- Concentration (fed, 3 mg/kg capsule, plasma, 0.5 h, individual animals, 3 mg/kg): 1.05 ng/mL and 0 ng/mL (2×)
- Concentration (fed, 3 mg/kg capsule, plasma, 1 h, individual animals, 3 mg/kg): 1.21 ng/mL and 1.48 ng/mL
- Concentration (fed, 3 mg/kg capsule, plasma, 2 h, individual animals, 3 mg/kg): 11.8 ng/mL and 0 ng/mL and 11.4 ng/mL
- Concentration (fed, 3 mg/kg capsule, plasma, 4 h, individual animals, 3 mg/kg): 34.8 ng/mL and 19.9 ng/mL and 78.2 ng/mL
- Concentration (fed, 3 mg/kg capsule, plasma, 8 h, individual animals, 3 mg/kg): 52.2 ng/mL and 63.7 ng/mL
- Concentration (fed, 3 mg/kg capsule, plasma, 12 h, individual animals, 3 mg/kg): 67.5 ng/mL and 42.2 ng/mL
- Concentration (fed, 3 mg/kg capsule, plasma, 24 h, individual animals, 3 mg/kg): 24.2 ng/mL and 61.9 ng/mL and 48.8 ng/mL
- Concentration (fed, 3 mg/kg capsule, plasma, 48 h, individual animals, 3 mg/kg): 4.26 ng/mL and 16.9 ng/mL and 13.5 ng/mL
